According to patent publication US8673914B2, “Use of phosphodiesterase inhibitors for treating multidrug resistance” (St. John's University, priority 2011, dated 2014):

Legend:
[1] = tested on: KB-C2 cells (ABCB1); assay: [^3H]-paclitaxel efflux (Example 1); type: cell-based, human; details: 1 h
Method: The intracellular accumulation of [^3H]-paclitaxel was measured as follows. […] Intracellular paclitaxel accumulation was measured by incubating cells with 0.1 μM [^3H]-paclitaxel for 2 h in the presence or absence of the reversal agents at 37° C. The cells were washed three times with ice-cold PBS, then suspended in fresh medium with or without reversal agents at 37° C. Aliquots of the extracellular medium (40 μl) were collected at various time points (0, 60, 120 min), and finally the cells were collected and lysed in 10 mM lysis buffer (pH 7.4, containing 1% Triton X-100 and 0.2% SDS). Each sample was placed in scintillation fluid and the radioactivity was measured in a Packard TRI-CARB1 1900CA liquid scintillation analyzer from Packard Instrument Company, Inc. (Downers Grove, Ill.).

[2] = target: T1, ABCB1 (Homo sapiens, UniProt P08183); assay: Vi-sensitive ATPase assay of ABCB1 (Example 1); type: biochemical; details: ABCB1 membrane vesicles; read-out: concentration required for 50% stimulation of ATPase activity
T1 construct: made in house; host or cells: High Five insect cells (membrane vesicles / crude membranes)
Method: The Vi-sensitive ATPase activity of ABCB1 in membrane vesicles of High Five™ insect cells was measured as follows. The membrane vesicles ([…]) were incubated in ATPase assay buffer (50 mM MES [pH 6.8], 50 mM KCl, 5 mM sodium azide, 2 mM EGTA, 2 mM dithiothreitol, 1 mM ouabain, and 10 mM MgCl2) with or without 0.3 mM orthovanadate (freshly prepared) at 37° C. for 5 min, then incubated with different concentrations of drug at 37° C. for 3 min. The ATPase reaction was started by the addition of 5 mM ATP, and the total volume was 0.1 ml. After incubation at 37° C. for 20 min, the reactions were stopped by the addition of 0.1 ml of 5% SDS solution and vortexed and kept at room temperature. The liberated Pi was measured as described in Ambudkar et al., supra.

[3] = tested on: ABCG2-482-R2 (ABCG2); assay: MTT cytotoxicity/reversal assay (Example 1); details: +10 μM reversal agent
Method: The KB-C2 and KB-3-1 were kindly provided by Dr. Akiyama (Kagoshima University, Japan). HEK293-pcDNA3.1 and wild-type HEK/ABCG2 transfected cells were established by selection with G418 after transfecting HEK293 with either (1) empty pcDNA3.1 vector or (2) pcDNA3.1 vector containing full length of ABCG2 coding arginine (R) at amino acid position 482, and were then cultured in a medium with 2 mg/ml of G418 (ABCG2-482-R2 cells). Similarly, the HEK/MRP1 (ABCC1) and HEK/ABCB1 cells were generated by transfecting the HEK293 cells with either the MRP1 expression vector or the ABCB1 expression vector. All of the cell lines were grown in Dulbecco's modified Eagle's medium (DMEM) supplemented with 10% bovine serum, 100 units/ml penicillin, and […] streptomycin in a humidified incubator containing 5% CO2 at 37° C.
(§1) The MTT assay was used to assess cytotoxicity. The cultured cells were harvested with trypsin and resuspended in a final concentration of 4×10^3 cells/well for KB-3-1; 7.5×10^3 cells/well for KB-C2; and 8×10^3 for all of the other cell lines used in this study. Cells were seeded evenly in 96-well multiplates. […] After 68 h of incubation, 20 μl of the MTT solution (4 mg/ml) was added to each well, and the plate was further incubated for 4 h at 37° C., allowing viable cells to convert the yellow-colored MTT into dark-blue formazan crystals. Subsequently, the medium was discarded, and 100 μl of DMSO was added into each well to dissolve the formazan crystals, generating purple color. The absorbance was determined at 570 nm by an OPSYS Microplate Reader from DYNEX Technologies, Inc. (Chantilly, Va.). […] The degree of the reversal of multidrug resistance (MDR) was calculated by dividing the IC50 of an anticancer drug, e.g., an antineoplastic or chemotherapeutic drug (agent, compound), in a cell type in the absence of a reversal agent by the IC50 of the anticancer drug in the same cell type in the presence of the reversal agent. The IC50 values were calculated from survival curves using the Bliss method.

[4] = tested on: HEK/MRP1 (ABCC1); assay: MTT cytotoxicity/reversal assay (Example 1); type: cell-based; details: +10 μM reversal agent
Method: The KB-C2 and KB-3-1 were kindly provided by Dr. Akiyama (Kagoshima University, Japan). […] Similarly, the HEK/MRP1 (ABCC1) and HEK/ABCB1 cells were generated by transfecting the HEK293 cells with either the MRP1 expression vector or the ABCB1 expression vector. All of the cell lines were grown in Dulbecco's modified Eagle's medium (DMEM) supplemented with 10% bovine serum, 100 units/ml penicillin, and […] streptomycin in a humidified incubator containing 5% CO2 at 37° C.
as §1

[5] = tested on: ABCB1 expression in KB-C2 cells; assay: Western blot and immunofluorescence of ABCB1; type: cell-based, human; details: for protein level of ABCB1 (Western blot): 10 μM, 36 and 72 h; for expression of ABCB1 in the membrane (immunofluorescence): 72 h
Method: Following incubation, the cells were harvested and rinsed twice with ice-cold PBS, and total cell lysates were collected with cell lysis buffer (1×PBS, 1% Nonidet P-40, 0.5% sodium deoxycholate, 0.1% SDS, 100 μg/ml phenylmethylsulfonyl fluoride, 10 μg/ml aprotinin, 10 μg/ml leupeptin) for 30 min with gentle rocking, and clarified by centrifugation at 12,000 rpm for 10 min at 4° C. Equal amounts (100 μg of protein) of cell lysates were resolved by sodium dodecyl sulfate polyacrylamide gel electrophoresis (SDS-PAGE) and electrophoretically transferred onto polyvinylidene fluoride (PVDF) membranes. After incubation in a blocking solution containing 5% nonfat milk in TBST buffer (10 mM Tris-HCL (pH 8.0), 150 mM NaCl, and 0.1% Tween 20) for 1 h at room temperature, membranes were immunoblotted overnight with primary monoclonal antibodies C219 (1:200) against ABCB1, or 14C10 (1:200) against GAPDH, at 4° C. Subsequently, the membranes were washed three times for 15 min with TBST buffer and incubated at room temperature for 2 h with HRP-conjugated secondary antibody at 1:1000 dilutions. The membranes underwent three additional washes for 15 min with TBST buffer and the protein-antibody complexes were visualized by the enhanced PHOTOTOPE® HRP Detection Kit (Cell Signaling Technology, Inc.) and exposed to Kodak medical X-ray processor (Eastman Kodak Co., Rochester, N.Y.). […] Propidium iodide was used for nuclear staining.

[6] = tested on: MRP7 localization in HEK/MRP7 cells; assay: Immunofluorescence of MRP7; type: cell-based; details: 5 μM; 72 h
Method: HEK/MRP7 cells (1×10^4) were seeded in 24 well plates and cultured overnight. […] Cells were washed with PBS and fixed with 4% paraformaldehyde for 15 min at room temperature and then rinsed with PBS three times. Nonspecific reaction was blocked with 1% BSA for 1 h at room temperature. A polyclonal antibody D19 against MRP7 (1:200) was added and incubated overnight. […] DAPI was used for nuclear staining. Immunofluorescent images were taken with an inverted microscope (model IX70; Olympus, Center Valley, Pa.) with IX-FLA fluorescence and CCD camera.

T1 sequence (P08183 whole entry): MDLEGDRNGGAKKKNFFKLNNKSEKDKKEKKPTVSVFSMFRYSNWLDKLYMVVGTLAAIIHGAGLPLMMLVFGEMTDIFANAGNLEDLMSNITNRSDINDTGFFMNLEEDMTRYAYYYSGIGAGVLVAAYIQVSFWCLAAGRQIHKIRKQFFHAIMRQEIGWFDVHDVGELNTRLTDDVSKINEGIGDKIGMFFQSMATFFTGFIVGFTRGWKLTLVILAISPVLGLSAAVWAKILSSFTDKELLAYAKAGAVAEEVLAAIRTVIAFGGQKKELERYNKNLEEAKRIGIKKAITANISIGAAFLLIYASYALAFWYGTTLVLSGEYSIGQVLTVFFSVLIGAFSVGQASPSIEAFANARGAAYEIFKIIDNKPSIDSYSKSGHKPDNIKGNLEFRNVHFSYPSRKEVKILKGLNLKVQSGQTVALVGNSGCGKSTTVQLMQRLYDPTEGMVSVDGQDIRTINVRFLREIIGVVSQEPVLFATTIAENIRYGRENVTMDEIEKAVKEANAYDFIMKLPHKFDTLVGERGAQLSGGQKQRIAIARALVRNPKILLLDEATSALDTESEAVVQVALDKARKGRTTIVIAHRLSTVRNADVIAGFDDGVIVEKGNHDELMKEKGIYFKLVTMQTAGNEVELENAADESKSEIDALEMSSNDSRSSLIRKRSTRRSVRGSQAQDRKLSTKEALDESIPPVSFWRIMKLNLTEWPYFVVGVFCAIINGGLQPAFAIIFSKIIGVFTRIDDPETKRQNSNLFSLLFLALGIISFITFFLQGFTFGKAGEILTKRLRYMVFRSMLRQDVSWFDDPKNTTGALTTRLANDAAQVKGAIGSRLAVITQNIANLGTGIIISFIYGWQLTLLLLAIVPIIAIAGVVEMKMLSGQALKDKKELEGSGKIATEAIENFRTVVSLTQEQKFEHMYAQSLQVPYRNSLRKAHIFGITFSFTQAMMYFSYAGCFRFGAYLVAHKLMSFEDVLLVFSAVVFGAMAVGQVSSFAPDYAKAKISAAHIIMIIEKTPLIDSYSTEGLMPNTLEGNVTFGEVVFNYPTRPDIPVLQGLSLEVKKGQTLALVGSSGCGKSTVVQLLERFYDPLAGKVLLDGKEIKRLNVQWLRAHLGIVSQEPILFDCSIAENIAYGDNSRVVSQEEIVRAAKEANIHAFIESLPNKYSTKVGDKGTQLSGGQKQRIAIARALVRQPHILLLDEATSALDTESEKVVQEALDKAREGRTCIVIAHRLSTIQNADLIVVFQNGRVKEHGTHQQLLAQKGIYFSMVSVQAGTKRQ

Structure (SMILES)	accumulated paclitaxel effluxed ([1]; absence of vardenafil)	EC50 [2]	fold reversal, SN-38 [3]	fold reversal, vincristine [4]	protein level of ABCB1 (Western blot) [5]	expression of ABCB1 in the membrane (immunofluorescence) [5]	MRP7 protein localization in plasma membranes [6]	accumulated paclitaxel retained inside cells ([1]; 10 μM)
CC(=O)O[C@H]1C(=O)[C@@]2(C)[C@H]([C@H](OC(=O)c3ccccc3)[C@]3(O)C[C@H](OC(=O)[C@H](O)[C@@H](NC(=O)c4ccccc4)c4ccccc4)C(C)=C1C3(C)C)[C@]1(OC(C)=O)CO[C@@H]1C[C@@H]2O [Paclitaxel, paclitaxel]	70%							
CN1CC(=O)N2[C@H](c3ccc4c(c3)OCO4)c3[nH]c4ccccc4c3C[C@@H]2C1=O [Tadalafil, tadalafil]		> 25000 nM	(1.04)	(1.03)	not significantly altered	neither vardenafil nor tadalafil altered the expression of ABCB1 in the membrane	no alteration of MRP7 protein localization	
CCCc1nc(C)c2c(=O)[nH]c(-c3cc(S(=O)(=O)N4CCN(CC)CC4)ccc3OCC)nn12 [Vardenafil, vardenafil]		2690 ± 720 nM	(0.97)	(1.07)	not significantly altered	neither vardenafil nor tadalafil altered the expression of ABCB1 in the membrane	no alteration of MRP7 protein localization	75%
